According to ChEMBL document CHEMBL2010654, “Novel isoxazole polycyclic aromatic hydrocarbons as DNA-intercalating agents” (Eur J Med Chem, 2012):
Calls of active or inactive are those of the source. No cut-off for these calls is given here. *1 amine or outer side, *2 acyl side, *3 side chain or, on linkers, in order; H or OH if unused. Where a SMILES comes first, the peptide text is derived from it. Bridges are numbered along the chain shown (N, C = ends). Roman numbers before positions name the chains, in order. [ ]: non-standard residue; d: D form. Actinocin(1to9) = Cc1c2oc3c(C)ccc(C(=O)[*:2])c3nc-2c(C(=O)[*:1])c(N)c1=O; NMeV = CN[C@H](C(=O)O)C(C)C; Sar = CNCC(=O)O

Assays:
Vero = assay: Cytotoxicity against african green monkey Vero cells after 20 hrs by MTS assay; assay type: cell-based; settings: Chlorocebus sabaeus
MOLT-3 = assay: Cytotoxicity against human MOLT3 cells after 20 hrs by MTS assay; assay type: functional, cell-based; settings: MOLT-3, 20 h
U-937 = assay: Cytotoxicity against human U937 cells after 20 hrs by MTS assay; assay type: functional, cell-based; settings: U-937, 20 h
THP-1 = assay: Cytotoxicity against human THP1 cells after 20 hrs by MTS assay; assay type: functional, cell-based; settings: THP-1, 20 h
A549 [1] = assay: Cytotoxicity against human A549 cells after 20 hrs by SRB assay; assay type: functional, cell-based; settings: A549, 20 h
HeLa = assay: Cytotoxicity against human HeLa cells after 20 hrs by MTS assay; assay type: functional, cell-based
Nucleic Acid [2] = assay: Binding affinity to Escherichia coli supercoiled phiX174 RF1 DNA assessed as DNA unwinding in presence of topoisomerase 1 after 30 mins by agarose gel electrophoresis; assay type: nucleic-acid assay
Nucleic Acid [3] = assay: Binding affinity to poly-d(AT)2 DNA by UV titration analysis; assay type: nucleic-acid assay
Nucleic Acid [4] = assay: Binding affinity to calf thymus DNA by UV titration analysis; assay type: nucleic-acid assay; settings: Bos taurus
Nucleic Acid [5] = assay: Binding affinity to polyd(GC)2 DNA by UV titration analysis; assay type: nucleic-acid assay
A549 [6] = assay: Cytotoxicity against human A549 cells assessed as reduction of cell number at 0.5 ug/ml after 8 hrs relative to control; assay type: functional; parameters: scale not given: the % may be the effect or the level left

| SMILES | IC50 (Vero) | IC50 (MOLT-3) | IC50 (U-937) | IC50 (THP-1) | IC50 (A549 [1]) | IC50 (HeLa) | Activity (Nucleic Acid [2]) | Kb (Nucleic Acid [3]) | Kb (Nucleic Acid [4]) | Kb (Nucleic Acid [5]) | Activity (A549 [6]) |
| --- | --- | --- | --- | --- | --- | --- | --- | --- | --- | --- | --- |
| CN(C)C(=O)[C@H]1C[C@H](c2cc3ccccc3c3ccccc23)N(C)O1 | 160 µM | 105 µM | 98 µM | 95 µM | 68 µM | 86 µM |  |  |  |  |  |
| CN(C)C(=O)C1CC(c2cc3ccccc3c3ccccc23)=NO1 (configuration not stated) | > 500 µM | > 500 µM | > 500 µM | > 500 µM | 435 µM | 401 µM |  |  |  |  |  |
| CN(C)C(=O)C1CC(c2ccc3ccc4cccc5ccc2c3c45)=NO1 (configuration not stated) | 160 µM | 65 µM | 194 µM | 69 µM | 49 µM | 69 µM |  |  |  |  |  |
| CN(C)C(=O)c1cc(-c2cc3ccccc3c3ccccc23)no1 | > 500 µM | 420 µM | > 500 µM | 403 µM | 335 µM | 290 µM |  |  |  |  |  |
| CN(C)C(=O)c1cc(-c2ccc3ccc4cccc5ccc2c3c45)no1 | 165 µM | 73 µM | 202 µM | 78 µM | 60 µM | 71 µM |  |  |  |  |  |
| CN(C)C(=O)[C@@H]1CON(C)[C@H]1c1ccc2ccc3cccc4ccc1c2c34 (racemic) | 143 µM | 59 µM | 185 µM | 61 µM | 44 µM | 65 µM |  |  |  |  |  |
| CN(C)C(=O)[C@H]1CON(Cc2ccccc2)[C@H]1c1ccc2ccc3cccc4ccc1c2c34 (racemic) | 151 µM | 100 µM | 102 µM | 93 µM | 63 µM | 79 µM |  |  |  |  |  |
| CN(C)C(=O)[C@@H]1C[C@H](c2ccc3ccc4cccc5ccc2c3c45)N(C)O1 (racemic) | 163 µM | 69 µM | 199 µM | 75 µM | 55 µM | 75 µM |  |  |  |  |  |
| CN(C)C(=O)[C@H]1C[C@H](c2ccc3ccc4cccc5ccc2c3c45)N(Cc2ccccc2)O1 (racemic) | 42 µM | 6 µM | 37 µM | 6 µM | 4 µM | 5 µM | Active | 1.6 ×10⁵ /M | 1.7 ×10⁵ /M | 0.3 ×10⁵ /M |  |
| CN(C)C(=O)[C@H]1C[C@H](c2ccc3ccc4cccc5ccc2c3c45)N(C)O1 (racemic) | 141 µM | 52 µM | 165 µM | 60 µM | 41 µM | 63 µM |  |  |  |  |  |
| CN(C)C(=O)[C@H]1C[C@H](c2cc3ccccc3c3ccccc23)N(Cc2ccccc2)O1 (racemic) | 115 µM | 15 µM | 100 µM | 17 µM | 10 µM | 14 µM |  |  |  |  |  |
| CN1O[C@H](CO)C[C@@H]1c1ccc2ccc3cccc4ccc1c2c34 (relative stereo) |  |  |  |  |  |  |  |  | 6.8 ×10³ /M |  |  |
| Cc1c2oc3c(C)ccc(C(=O)N[C@@H]4C(=O)N[C@H](C(C)C)C(=O)N5CCC[C@H]5C(=O)N(C)CC(=O)N(C)[C@@H](C(C)C)C(=O)O[C@@H]4C)c3nc-2c(C(=O)N[C@@H]2C(=O)N[C@H](C(C)C)C(=O)N3CCC[C@H]3C(=O)N(C)CC(=O)N(C)[C@@H](C(C)C)C(=O)O[C@@H]2C)c(N)c1=O [DACTINOMYCIN] (I: T[dV]P[Sar][NMeV] / II: T[dV]P[Sar][NMeV]; ester I:1-I:C, II:1-II:C; linker I:N-II:N via Actinocin(1to9)) |  |  |  |  |  |  |  |  |  |  | 40% |
